Assay results: ChEMBL document CHEMBL1201862, “PubChem BioAssay data set” (2004)
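Following 48 hours of exposure in 96-well plates, responses at five concentrations were used to interpolate endpoints linearly. GI50 = concentration required for 50% inhibition of growth.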 Active and inactive are the calls of the source. Cut-off read from the data, not from the text of the source: active = GI50 up to about 1.1 µM and inactive = higher.

Legend:
Assay in all cases: growth of human tumour cells (NCI), 48 h
[1] = tested on: M14
[2] = tested on: RPMI-8226
[3] = tested on: LOX IMVI
[4] = tested on: DMS-114
[5] = tested on: UACC-62
[6] = tested on: SW-620
[7] = tested on: SNB-75
[8] = tested on: NCI-H226
[9] = tested on: KM-20L2
[10] = tested on: A549
[11] = tested on: UO-31
[12] = tested on: 786-0
[13] = tested on: MOLT-4
[14] = tested on: OVCAR-4
[15] = tested on: HCT-15
[16] = tested on: SK-MEL-28
[17] = tested on: COLO 205
[18] = tested on: A498
[19] = tested on: HOP-62
[20] = tested on: EKVX
[21] = tested on: NCI-H522
[22] = tested on: KM12
[23] = tested on: HCT-116
[24] = tested on: UACC-257
[25] = tested on: NCI-H23
[26] = tested on: K562
[27] = tested on: CCRF-CEM
[28] = tested on: OVCAR-3
[29] = tested on: DLD-1
[30] = tested on: ACHN
[31] = tested on: SF-268
[32] = tested on: M19-MEL
[33] = tested on: LXFL 529
[34] = tested on: HCC 2998
[35] = tested on: SR
[36] = tested on: SN12C
[37] = tested on: SF-295
[38] = tested on: HL-60
[39] = tested on: XF498
[40] = tested on: OVCAR-5
[41] = tested on: DMS-273
[42] = tested on: SNB-19
[43] = tested on: SNB-78
[44] = tested on: HOP-18
[45] = tested on: OVCAR-8
[46] = tested on: NCI-H460
[47] = tested on: SK-OV-3
[48] = tested on: U-251
[49] = tested on: HT-29
[50] = tested on: RXF 393
[51] = tested on: SF-539
[52] = tested on: IGROV-1
[53] = tested on: Malme-3M
[54] = tested on: TK-10
[55] = tested on: SK-MEL-5

COc1ccccc1/N=N/c1c(-c2ccccc2)nn(C(=O)CC(=O)Nc2ccccc2Cl)c1-c1ccccc1
GI50 [1]: > 100 µM (inactive) | GI50 [2]: 65.5 µM (inactive) | GI50 [3]: > 100 µM (inactive) | GI50 [4]: > 100 µM (inactive) | GI50 [5]: > 100 µM (inactive) | GI50 [6]: > 100 µM (inactive) | GI50 [7]: > 100 µM (inactive) | GI50 [8]: > 100 µM (inactive) | GI50 [9]: > 100 µM (inactive) | GI50 [10]: > 100 µM (inactive) | GI50 [11]: > 100 µM (inactive) | GI50 [12]: > 100 µM (inactive) | GI50 [13]: 81.8 µM (inactive) | GI50 [14]: > 100 µM (inactive) | GI50 [15]: > 100 µM | GI50 [16]: > 100 µM (inactive) | GI50 [17]: > 100 µM (inactive) | GI50 [18]: > 100 µM (inactive) | GI50 [19]: > 100 µM (inactive) | GI50 [20]: > 100 µM (inactive) | GI50 [21]: > 100 µM (inactive) | GI50 [22]: > 100 µM (inactive) | GI50 [23]: > 100 µM (inactive) | GI50 [24]: > 100 µM (inactive) | GI50 [25]: > 100 µM (inactive) | GI50 [26]: > 100 µM (inactive) | GI50 [27]: 77.8 µM (inactive) | GI50 [28]: > 100 µM (inactive) | GI50 [29]: > 100 µM (inactive) | GI50 [30]: > 100 µM (inactive) | GI50 [31]: > 100 µM (inactive) | GI50 [32]: > 100 µM (inactive) | GI50 [33]: > 100 µM (inactive) | GI50 [34]: > 100 µM (inactive) | GI50 [35]: > 100 µM (inactive) | GI50 [36]: > 100 µM (inactive) | GI50 [37]: > 100 µM (inactive) | GI50 [38]: > 100 µM (inactive) | GI50 [39]: > 100 µM (inactive) | GI50 [40]: > 100 µM (inactive) | GI50 [41]: > 100 µM (inactive) | GI50 [42]: > 100 µM (inactive) | GI50 [43]: > 100 µM (inactive) | GI50 [44]: > 100 µM (inactive) | GI50 [45]: > 100 µM (inactive) | GI50 [46]: > 100 µM (inactive) | GI50 [47]: > 100 µM (inactive) | GI50 [48]: > 100 µM (inactive) | GI50 [49]: 99.3 µM (inactive) | GI50 [50]: 24.6 µM (inactive) | GI50 [51]: > 100 µM (inactive) | GI50 [52]: > 100 µM (inactive) | GI50 [53]: > 100 µM (inactive) | GI50 [54]: > 100 µM (inactive) | GI50 [55]: > 100 µM (inactive)
